Literature values as cited in patent US7459569B2, “Method of forming iron hydroxypyrone compounds” (Vitra Pharmaceuticals Limited, priority 2002, dated 2008).

Conditions: given on an empty stomach

In the case of `O=S(=O)([O-])[O-].[Fe+2]` [ferrous sulphate], the absorption rate is listed as 30%.
